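Briefly, cells in 96-well plates were exposed to five compound concentrations for 48 h, and endpoints were estimated by linear interpolation. GI50: concentration for 50% inhibition of growth. TGI: concentration producing complete growth inhibition.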
Tests used:
Experiment in all cases: DTP human tumour cell line panel, 48 h
MDA-MB-231 breast = tested on: MDA-MB-231 breast
U251 CNS = tested on: U251 CNS
HOP-62 NSCLC = tested on: HOP-62 NSCLC
SK-MEL-28 melanoma = tested on: SK-MEL-28 melanoma
HT29 colon = tested on: HT29 colon
DU-145 prostate = tested on: DU-145 prostate
SW-620 colon = tested on: SW-620 colon
SK-OV-3 ovarian = tested on: SK-OV-3 ovarian
HCT-15 colon = tested on: HCT-15 colon
SN12C renal = tested on: SN12C renal
OVCAR-5 ovarian = tested on: OVCAR-5 ovarian
HOP-92 NSCLC = tested on: HOP-92 NSCLC
BT-549 breast = tested on: BT-549 breast
SF-295 CNS = tested on: SF-295 CNS
UACC-257 melanoma = tested on: UACC-257 melanoma
RPMI-8226 leukemia = tested on: RPMI-8226 leukemia
HL-60(TB) leukemia = tested on: HL-60(TB) leukemia
UO-31 renal = tested on: UO-31 renal
COLO 205 colon = tested on: COLO 205 colon
SK-MEL-5 melanoma = tested on: SK-MEL-5 melanoma
NCI-H226 lung = tested on: NCI-H226 lung
SF-268 CNS = tested on: SF-268 CNS
ACHN renal = tested on: ACHN renal
SNB-19 CNS = tested on: SNB-19 CNS
CAKI-1 renal = tested on: CAKI-1 renal
M14 melanoma = tested on: M14 melanoma
CCRF-CEM leukemia = tested on: CCRF-CEM leukemia
SF-539 CNS = tested on: SF-539 CNS
SNB-75 CNS = tested on: SNB-75 CNS
OVCAR-3 ovarian = tested on: OVCAR-3 ovarian
NCI-H460 lung = tested on: NCI-H460 lung
SR leukemia = tested on: SR leukemia
OVCAR-8 ovarian = tested on: OVCAR-8 ovarian
HCT-116 colon = tested on: HCT-116 colon
A549 NSCLC = tested on: A549 NSCLC
KM12 colon = tested on: KM12 colon
EKVX NSCLC = tested on: EKVX NSCLC
T-47D breast = tested on: T-47D breast
786-0 renal = tested on: 786-0 renal
MDA-MB-435 = tested on: MDA-MB-435
LOX IMVI melanoma = tested on: LOX IMVI melanoma
MCF7 breast = tested on: MCF7 breast
PC-3 prostate = tested on: PC-3 prostate
MOLT-4 leukemia = tested on: MOLT-4 leukemia
IGROV1 ovarian = tested on: IGROV1 ovarian
NCI-H23 lung = tested on: NCI-H23 lung
A498 renal = tested on: A498 renal
HS 578T breast = tested on: HS 578T breast
NCI/ADR-RES ovarian = tested on: NCI/ADR-RES ovarian
OVCAR-4 ovarian = tested on: OVCAR-4 ovarian
UACC-62 melanoma = tested on: UACC-62 melanoma
NCI-H522 lung = tested on: NCI-H522 lung
MALME-3M melanoma = tested on: MALME-3M melanoma
TK-10 renal = tested on: TK-10 renal
RXF 393 renal = tested on: RXF 393 renal
SK-MEL-2 melanoma = tested on: SK-MEL-2 melanoma
HCC-2998 colon = tested on: HCC-2998 colon
K-562 leukemia = tested on: K-562 leukemia

ClCCN1CCOC1=C1C=CC=C1
TGI (MDA-MB-231 breast): > 100 µM | TGI (U251 CNS): > 100 µM | TGI (HOP-62 NSCLC): > 100 µM | TGI (SK-MEL-28 melanoma): > 100 µM | TGI (HT29 colon): > 100 µM | TGI (DU-145 prostate): > 100 µM | TGI (SW-620 colon): > 100 µM | TGI (SK-OV-3 ovarian): > 100 µM | TGI (HCT-15 colon): > 100 µM | TGI (SN12C renal): > 100 µM | TGI (OVCAR-5 ovarian): > 100 µM | TGI (HOP-92 NSCLC): > 100 µM | TGI (BT-549 breast): > 100 µM | TGI (SF-295 CNS): > 100 µM | TGI (UACC-257 melanoma): > 100 µM | TGI (RPMI-8226 leukemia): > 100 µM | TGI (HL-60(TB) leukemia): > 100 µM | TGI (UO-31 renal): > 100 µM | TGI (COLO 205 colon): > 100 µM | TGI (SK-MEL-5 melanoma): > 100 µM | TGI (NCI-H226 lung): > 100 µM | TGI (SF-268 CNS): > 100 µM | TGI (ACHN renal): > 100 µM | TGI (SNB-19 CNS): > 100 µM | TGI (CAKI-1 renal): > 100 µM | TGI (M14 melanoma): > 100 µM | TGI (CCRF-CEM leukemia): > 100 µM | TGI (SF-539 CNS): > 100 µM | TGI (SNB-75 CNS): > 100 µM | TGI (OVCAR-3 ovarian): > 100 µM | TGI (NCI-H460 lung): > 100 µM | TGI (SR leukemia): 40.4 µM | TGI (OVCAR-8 ovarian): > 100 µM | TGI (HCT-116 colon): > 100 µM | TGI (A549 NSCLC): > 100 µM | TGI (KM12 colon): > 100 µM | TGI (EKVX NSCLC): > 100 µM | TGI (T-47D breast): > 100 µM | TGI (786-0 renal): > 100 µM | TGI (MDA-MB-435): > 100 µM | TGI (LOX IMVI melanoma): > 100 µM | TGI (MCF7 breast): > 100 µM | TGI (PC-3 prostate): > 100 µM | TGI (MOLT-4 leukemia): > 100 µM | TGI (IGROV1 ovarian): > 100 µM | TGI (NCI-H23 lung): > 100 µM | TGI (A498 renal): > 100 µM | TGI (HS 578T breast): > 100 µM | TGI (NCI/ADR-RES ovarian): > 100 µM

Oc1ccc(CCl)c2cccnc12
GI50 (MDA-MB-231 breast): 6.07 µM | TGI (MDA-MB-231 breast): > 100 µM | GI50 (U251 CNS): 7.7 µM | TGI (U251 CNS): > 100 µM | GI50 (HOP-62 NSCLC): 16 µM | TGI (HOP-62 NSCLC): > 100 µM | GI50 (SK-MEL-28 melanoma): 59 µM | TGI (SK-MEL-28 melanoma): > 100 µM | GI50 (HT29 colon): 9.68 µM | TGI (HT29 colon): > 100 µM | GI50 (DU-145 prostate): 15.7 µM | TGI (DU-145 prostate): > 100 µM | GI50 (SW-620 colon): 4.12 µM | TGI (SW-620 colon): > 100 µM | GI50 (SK-OV-3 ovarian): 43.8 µM | TGI (SK-OV-3 ovarian): > 100 µM | GI50 (HCT-15 colon): 3.8 µM | TGI (HCT-15 colon): > 100 µM | GI50 (OVCAR-4 ovarian): 3.41 µM | TGI (OVCAR-4 ovarian): > 100 µM | GI50 (UACC-62 melanoma): 8.37 µM | TGI (UACC-62 melanoma): > 100 µM | GI50 (SN12C renal): 12.5 µM | TGI (SN12C renal): > 100 µM | GI50 (OVCAR-5 ovarian): 17.5 µM | TGI (OVCAR-5 ovarian): > 100 µM | GI50 (HOP-92 NSCLC): 14.5 µM | TGI (HOP-92 NSCLC): 90 µM | GI50 (NCI-H522 lung): 3.62 µM | TGI (NCI-H522 lung): > 100 µM | GI50 (BT-549 breast): 32.4 µM | TGI (BT-549 breast): > 100 µM | GI50 (SF-295 CNS): 3.72 µM | TGI (SF-295 CNS): 25.8 µM | GI50 (MALME-3M melanoma): 4.44 µM | TGI (MALME-3M melanoma): 36 µM | GI50 (UACC-257 melanoma): 4.21 µM | TGI (UACC-257 melanoma): > 100 µM | GI50 (RPMI-8226 leukemia): 4.25 µM | TGI (RPMI-8226 leukemia): > 100 µM | GI50 (HL-60(TB) leukemia): 1.36 µM | TGI (HL-60(TB) leukemia): 17.7 µM | GI50 (UO-31 renal): 2.9 µM | TGI (UO-31 renal): > 100 µM | GI50 (COLO 205 colon): 7.05 µM | TGI (COLO 205 colon): > 100 µM | GI50 (TK-10 renal): > 100 µM | TGI (TK-10 renal): > 100 µM | GI50 (RXF 393 renal): 32.9 µM | TGI (RXF 393 renal): > 100 µM | GI50 (SK-MEL-5 melanoma): 12.4 µM | TGI (SK-MEL-5 melanoma): 35.6 µM | GI50 (NCI-H226 lung): 34.6 µM | TGI (NCI-H226 lung): > 100 µM | GI50 (SF-268 CNS): 6.84 µM | TGI (SF-268 CNS): > 100 µM | GI50 (ACHN renal): 6.88 µM | TGI (ACHN renal): > 100 µM | GI50 (SNB-19 CNS): 22.9 µM | TGI (SNB-19 CNS): > 100 µM | GI50 (SK-MEL-2 melanoma): > 100 µM | TGI (SK-MEL-2 melanoma): > 100 µM | GI50 (CAKI-1 renal): 5.91 µM | TGI (CAKI-1 renal): 53.3 µM | GI50 (M14 melanoma): 3.2 µM | TGI (M14 melanoma): > 100 µM | GI50 (CCRF-CEM leukemia): 4.1 µM | TGI (CCRF-CEM leukemia): > 100 µM | GI50 (HCC-2998 colon): 33.5 µM | TGI (HCC-2998 colon): > 100 µM | GI50 (SF-539 CNS): 14.5 µM | TGI (SF-539 CNS): > 100 µM | GI50 (K-562 leukemia): 3.39 µM | TGI (K-562 leukemia): > 100 µM | GI50 (SNB-75 CNS): 44 µM | TGI (SNB-75 CNS): > 100 µM | GI50 (OVCAR-3 ovarian): 2.08 µM | TGI (OVCAR-3 ovarian): 5.5 µM | GI50 (NCI-H460 lung): 3.95 µM | TGI (NCI-H460 lung): 16 µM | GI50 (SR leukemia): 3.43 µM | TGI (SR leukemia): 53.6 µM | GI50 (OVCAR-8 ovarian): 4.93 µM | TGI (OVCAR-8 ovarian): > 100 µM | GI50 (HCT-116 colon): 3.29 µM | TGI (HCT-116 colon): > 100 µM | GI50 (A549 NSCLC): 14.3 µM | TGI (A549 NSCLC): > 100 µM | GI50 (KM12 colon): 11.3 µM | TGI (KM12 colon): > 100 µM | GI50 (EKVX NSCLC): 3.21 µM | TGI (EKVX NSCLC): 31.6 µM | GI50 (T-47D breast): 3.65 µM | TGI (T-47D breast): > 100 µM | GI50 (786-0 renal): 37.7 µM | TGI (786-0 renal): > 100 µM | GI50 (MDA-MB-435): 5.81 µM | TGI (MDA-MB-435): 95.3 µM | GI50 (LOX IMVI melanoma): 4.9 µM | TGI (LOX IMVI melanoma): > 100 µM | GI50 (PC-3 prostate): 12.3 µM | TGI (PC-3 prostate): > 100 µM | GI50 (MOLT-4 leukemia): 3.96 µM | TGI (MOLT-4 leukemia): > 100 µM | GI50 (NCI-H23 lung): 6.13 µM | TGI (NCI-H23 lung): > 100 µM | GI50 (A498 renal): 46.5 µM | TGI (A498 renal): > 100 µM | GI50 (HS 578T breast): 6.94 µM | TGI (HS 578T breast): 91.3 µM | GI50 (NCI/ADR-RES ovarian): 2.98 µM | TGI (NCI/ADR-RES ovarian): 28.9 µM

From PubChem BioAssay (NCI)
